Experimental data reported in patent publication US20240368164A1, “PURINE NUCLEOSIDES, THEIR INTERMEDIATES, AND METHODS OF PREPARATION THEREOF” (Astrocyle Pharmaceuticals, Inc., priority 2021, published 2024).

Target: T1, Human A3R (Homo sapiens, UniProt P0DMS8)
T1 construct: expressed in transfected cells
T1 sequence (P0DMS8 1-318): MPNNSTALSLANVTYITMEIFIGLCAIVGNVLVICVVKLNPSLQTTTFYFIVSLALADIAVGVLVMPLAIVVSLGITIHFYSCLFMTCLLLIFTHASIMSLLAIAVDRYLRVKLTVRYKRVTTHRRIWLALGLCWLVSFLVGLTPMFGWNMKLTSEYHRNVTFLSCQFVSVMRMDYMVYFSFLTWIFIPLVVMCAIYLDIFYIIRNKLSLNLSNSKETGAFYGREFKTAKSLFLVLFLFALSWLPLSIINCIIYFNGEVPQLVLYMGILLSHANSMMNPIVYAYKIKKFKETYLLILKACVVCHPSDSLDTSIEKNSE
Experiment: Radioligand binding at human A3 adenosine receptor ([125I]I-AB-MECA, CHO cell membranes)
Settings: n = 1; read-out: Affinity (nM) at Human A3R
Procedure: [3H]R—N^6-Phenylisopropyladenosine ([3H]R-PIA, 63 Ci/mmol), [^3H](2-[p-(2-carboxyethyl)phenyl-ethylamino]-5′-N-ethylcarboxamido-adenosine) ([^3H]CGS21680, 40.5 Ci/mmol) and [^125I]N^6-(4-amino-3-iodobenzyl)adenosine-5′-N-methyluronamide ([^125I]I-AB-MECA, 2200 Ci/mmol) were purchased from Perkin-Elmer Life and Analytical Science (Boston, MA). Test compounds were prepared as 5 mM stock solutions in DMSO and stored frozen.
Cell Culture and Membrane Preparation—CHO cells stably expressing the recombinant hA1 and hA3ARs and HEK293 cells stably expressing the hA2AAR were cultured in Dulbecco's modified Eagle medium (DMEM) and F12 (1:1) supplemented with 10% fetal bovine serum, 100 units/mL penicillin, 100 μg/mL streptomycin, and 2 μmol/mL glutamine. In addition, 800 μg/mL geneticin was added to the A2A media, while 500 μg/mL hygromycin was added to the A1 and A3 media. After harvesting, cells were homogenized and suspended in PBS. Cells were then centrifuged at 240 g for 5 min, and the pellet was resuspended in 50 mM Tris-HCl buffer (pH 7.5) containing 10 mM MgCl2. The suspension was homogenized and was then ultra-centrifuged at 14,330 g for 30 min at 4° C. The resultant pellets were resuspended in Tris buffer, incubated with adenosine deaminase (3 units/mL) for 30 min at 37° C. The suspension was homogenized with an electric homogenizer for 10 sec, pipetted into 1 mL vials and then stored at −80° C. until the binding experiments. The protein concentration was measured using the BCA Protein Assay Kit from Pierce Biotechnology, Inc. (Rockford, IL).
Binding assays: Into each tube in the binding assay was added 50 μL of increasing concentrations of the test ligand in Tris-HCl buffer (50 mM, pH 7.5) containing 10 mM MgCl2, 50 μL of the appropriate agonist radioligand, and finally 100 μL of membrane suspension. For the A1AR (22 μg of protein/tube) the radioligand used was [^3H]R-PIA (final concentration of 3.5 nM). For the A2AAR (20 μg/tube) the radioligand used was [^3H]CGS21680 (10 nM). For the A3AR ([…]) the radioligand used was [^125I]I-AB-MECA (0.34 nM). Nonspecific binding was determined using a final concentration of 10 μM NECA diluted with the buffer. The mixtures were incubated at 25° C. for 60 min in a shaking water bath. Binding reactions were terminated by filtration through Brandel GF/B filters under a reduced pressure using a M-24 cell harvester (Brandel, Gaithersburg, MD). Filters were washed three times with 3 mL of 50 mM ice-cold Tris-HCl buffer (pH 7.5). Filters for A1 and A2AAR binding were placed in scintillation vials containing 5 mL of Hydrofluor scintillation buffer and counted using a Perkin Elmer Liquid Scintillation Analyzer (Tri-Carb 2810TR). Filters for A3AR binding were counted using a Packard Cobra II T-counter. The Ki values were determined using GraphPad Prism for all assays.
A3R binding of selected compounds. Using methods described herein, the affinity of selected compounds at the A3 receptor was measured.

SMILES: CSc1nc(N)c2ncn([C@H]3[C@H](O)[C@H](O)[C@]4(CO)C[C@H]34)c2n1 [Compound I-1, (1R,2R,3S,4R,5S)-4-(6-Amino-2-(methylthio)-9H-purin-9-yl)-1-(hydroxymethyl)bicyclo[3.1.0]hexane-2,3-diol]
- Ki: 1490 nM
